Laboratory results from PMC9352670 (2022).

How the values were obtained:
Test in all cases: microscale thermophoresis
[1] = tested on: Dm-LS-1 (DNA, aptamer, HFNAP: side-chain on 5' nucleobase of each coding trinucleotide, positions 19,22,25,...,61 (codon key Figure 1B)) GAAAGCAGGACTGGAGATCCGCGCCGCTTTTATCCCTAGTCCCTTTTACCCTACTTCCCCTTACAGACCGAACTAGAGCTT; settings: 5 mM KCl, 1 mM MgCl2, 1 mM CaCl2 added; HBS-P+ buffer, 25 °C
[2] = tested on: Dm-CVAE-without-selection-1 (DNA, aptamer, HFNAP: side-chain on 5' nucleobase of each coding trinucleotide, positions 19,22,25,...,61 (codon key Figure 1B)) GAAAGCAGGACTGGAGATCCGCATCGCTTATGCTGATCTTTTCCATATTGCCTTTCCTCCTACCAGACCGAACTAGAGCTT; settings: 5 mM KCl, 1 mM MgCl2, 1 mM CaCl2 added; HBS-P+ buffer, 25 °C
[3] = tested on: Dm-CCS-2 (DNA, aptamer, HFNAP: side-chain on 5' nucleobase of each coding trinucleotide, positions 19,22,25,...,61 (codon key Figure 1B)) GAAAGCAGGACTGGAGATCGTTTATGGCCACCTCCTTGACAGTTGCCCTGCCTCCAGTCCTCCCAGACCGAACTAGAGCTT; settings: 5 mM KCl, 1 mM MgCl2, 1 mM CaCl2 added; HBS-P+ buffer, 25 °C
[4] = tested on: Dm-CCS-3 (DNA, aptamer, HFNAP: side-chain on 5' nucleobase of each coding trinucleotide, positions 19,22,25,...,61 (codon key Figure 1B)) GAAAGCAGGACTGGAGATTTACATCCCCTCCAGTCGTGCCCCCTACCTTGCTGCTCGTCATGGCAGACCGAACTAGAGCTT; settings: 5 mM KCl, 1 mM MgCl2, 1 mM CaCl2 added; HBS-P+ buffer, 25 °C
[5] = tested on: Dm-CCS-4 (DNA, aptamer, HFNAP: side-chain on 5' nucleobase of each coding trinucleotide, positions 19,22,25,...,61 (codon key Figure 1B)) GAAAGCAGGACTGGAGATCGCTGACAGCGATCCCGACTGTGATCTTGCTGCTGCCTCTCGCGCCAGACCGAACTAGAGCTT; settings: 5 mM KCl, 1 mM MgCl2, 1 mM CaCl2 added; HBS-P+ buffer, 25 °C
[6] = tested on: Dm-reference-based-random-after-selection-4 (DNA, other, HFNAP: side-chain on 5' nucleobase of each coding trinucleotide, positions 19,22,25,...,61 (codon key Figure 1B)) GAAAGCAGGACTGGAGATCATCCTTCCTTATAGCATCGGCCGTTTCCGTTGCCATCCCCCCCACAGACCGAACTAGAGCTT; settings: 5 mM KCl, 1 mM MgCl2, 1 mM CaCl2 added; HBS-P+ buffer, 25 °C
[7] = tested on: Dm-reference-based-random-after-selection-5 (DNA, other, HFNAP: side-chain on 5' nucleobase of each coding trinucleotide, positions 19,22,25,...,61 (codon key Figure 1B)) GAAAGCAGGACTGGAGATCATTTCCTCCCTTATCGATAATCTCCTTTTTTATACTGCTTTTTCCAGACCGAACTAGAGCTT; settings: 5 mM KCl, 1 mM MgCl2, 1 mM CaCl2 added; HBS-P+ buffer, 25 °C
[8] = tested on: Dm-HS-1 ∆ s.c. (DNA, aptamer, none (no side-chains)) GAAAGCAGGACTGGAGATCGATTCTGGTGCTGTTGATCTCCGCCATTGTGCTCCTACCCTTCACAGACCGAACTAGAGCTT; settings: 5 mM KCl, 1 mM MgCl2, 1 mM CaCl2 added; HBS-P+ buffer, 25 °C
[9] = tested on: Dm-HS-2 ∆ s.c. (DNA, aptamer, none (no side-chains)) GAAAGCAGGACTGGAGATCTATGGTCGCATCGTTGACCCTTGTCCTGCCCCTGTCTCTCTCAACAGACCGAACTAGAGCTT; settings: 5 mM KCl, 1 mM MgCl2, 1 mM CaCl2 added; HBS-P+ buffer, 25 °C
[10] = tested on: Dm-HS-5 ∆ s.c. (DNA, aptamer, none (no side-chains)) GAAAGCAGGACTGGAGATCGATTCTGGTGCTGTTGATCTCCGCCATTGTGCTCCTGCCCTTCACAGACCGAACTAGAGCTT; settings: 5 mM KCl, 1 mM MgCl2, 1 mM CaCl2 added; HBS-P+ buffer, 25 °C
[11] = tested on: Dm-HS-9 ∆ s.c. (DNA, aptamer, none (no side-chains)) GAAAGCAGGACTGGAGATCGATTATTGTGATTTTGATCTCCCCCATATCCCCTTCCCTACTCGCAGACCGAACTAGAGCTT; settings: 5 mM KCl, 1 mM MgCl2, 1 mM CaCl2 added; HBS-P+ buffer, 25 °C
[12] = tested on: Dm-HS-1 CGA ∆ s.c. (DNA, aptamer, as Dm-HS-1 but no side-chain at 19: allylamine at 22,25,37; alcohol at 28,34,49; phenol at 31,46; cyclopentyl at 40; cyclopropyl at 43,58; imidazole at 52,55,61) GAAAGCAGGACTGGAGATCGATTCTGGTGCTGTTGATCTCCGCCATTGTGCTCCTACCCTTCACAGACCGAACTAGAGCTT; settings: 5 mM KCl, 1 mM MgCl2, 1 mM CaCl2 added; HBS-P+ buffer, 25 °C
[13] = tested on: Dm-HS-1 TGA ∆ s.c. (DNA, aptamer, as Dm-HS-1 but no side-chain at 34: fluorophenyl at 19; allylamine at 22,25,37; alcohol at 28,49; phenol at 31,46; cyclopentyl at 40; cyclopropyl at 43,58; imidazole at 52,55,61) GAAAGCAGGACTGGAGATCGATTCTGGTGCTGTTGATCTCCGCCATTGTGCTCCTACCCTTCACAGACCGAACTAGAGCTT; settings: 5 mM KCl, 1 mM MgCl2, 1 mM CaCl2 added; HBS-P+ buffer, 25 °C
[14] = tested on: Dm-HS-1 TGG ∆ s.c. (DNA, aptamer, no side-chain at 25 (codon 3 TGG); others as HFNAP: fluorophenyl at 19; allylamine at 22, 37; alcohol at 28, 34, 49; phenol at 31, 46; cyclopentyl at 40; cyclopropyl at 43, 58; imidazole at 52, 55, 61) GAAAGCAGGACTGGAGATCGATTCTGGTGCTGTTGATCTCCGCCATTGTGCTCCTACCCTTCACAGACCGAACTAGAGCTT; settings: 5 mM KCl, 1 mM MgCl2, 1 mM CaCl2 added to HBS-P+; HBS-P+ buffer, 25 °C
[15] = tested on: Dm-HS-1 TCA ∆ s.c. (DNA, aptamer, no side-chain at 61 (codon 15 TCA); others as HFNAP: fluorophenyl at 19; allylamine at 22, 25, 37; alcohol at 28, 34, 49; phenol at 31, 46; cyclopentyl at 40; cyclopropyl at 43, 58; imidazole at 52, 55) GAAAGCAGGACTGGAGATCGATTCTGGTGCTGTTGATCTCCGCCATTGTGCTCCTACCCTTCACAGACCGAACTAGAGCTT; settings: 5 mM KCl, 1 mM MgCl2, 1 mM CaCl2 added to HBS-P+; HBS-P+ buffer, 25 °C

SMILES: COc1cccc2c1C(=O)c1c(O)c3c(c(O)c1C2=O)C[C@@](O)(C(C)=O)C[C@@H]3O[C@H]1C[C@H](N)[C@H](O)[C@H](C)O1
- Kd [1]: 1110 ± 60 nM
- Kd [2]: 13.2 ± 3.2 nM
- Kd [3]: 16.6 ± 14.0 nM
- Kd [4]: 26.4 ± 6.9 nM
- Kd [5]: 8.5 ± 2.3 nM
- Kd [6]: 107900 ± 6900 nM
- Kd [7]: 119700 ± 9300 nM
- Kd ∆ side-chains [8]: 2610 ± 190 nM
- Kd ∆ side-chains [9]: 1700 ± 170 nM
- Kd ∆ side-chains [10]: 4500 ± 210 nM
- Kd ∆ side-chains [11]: 5000 ± 140 nM
- Kd [12]: 231.1 ± 23.6 nM
- Kd [13]: 46.8 ± 4.8 nM
- Kd [14]: 16.0 ± 2.2 nM
- Kd [15]: 10.1 ± 1.6 nM
